In patent US6054435A, “6-O-substituted macrolides having antibacterial activity” (priority 1999, dated 2000):
Converted amounts (≈) assume the structure as drawn.

Legend:
Assay in all cases: in vitro antibacterial activity (MIC), agar dilution
Assay type in all cases: cell-based
[1] = tested on: Staphylococcus aureus CMX 553; conditions: organism code FF; BHI agar, 35-37° C., 20 to 24 hours; unit assumed
Summary of the method: (§1)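 Steps: dilute compound serially into BHI agar (twelve plates); spot inocula diluted 1:100, or 1:10 for slow-growing Streptococcus; incubate; inspect visually. MIC recorded as lowest level with no growth, slight haze or sparse isolated colonies.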

[2] = tested on: Streptococcus agalactiae CMX 508; conditions: organism code KK; BHI agar, 35-37° C., 20 to 24 hours; unit assumed
Summary of the method: as §1

[3] = tested on: Streptococcus Pneumonia 5979; conditions: organism code ZZ; BHI agar, 35-37° C., 20 to 24 hours; unit assumed
Summary of the method: as §1

[4] = tested on: Streptococcus Pneumonia 5649; conditions: organism code ZZA; BHI agar, 35-37° C., 20 to 24 hours; unit assumed
Summary of the method: as §1

[5] = tested on: Haemophilis Influenzae DILL AMP R; conditions: organism code WW; BHI agar, 35-37° C., 20 to 24 hours; unit assumed
Summary of the method: as §1

[6] = tested on: Streptococcus Pneumonia ATCC6303; conditions: organism code XX; BHI agar, 35-37° C., 20 to 24 hours; unit assumed
Summary of the method: as §1

[7] = tested on: Staphylococcus epidermidis 3519; conditions: organism code HH; BHI agar, 35-37° C., 20 to 24 hours; unit assumed
Summary of the method: as §1

[8] = tested on: Micrococcus luteus ATCC 4698; conditions: organism code PP; BHI agar, 35-37° C., 20 to 24 hours; unit assumed
Summary of the method: (§2)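 Agar dilution on BHI agar with twelve successive compound dilutions; plates inoculated by Steers replicator with 1:100 culture dilutions (1:10 for slow growers such as Streptococcus). MIC is the lowest concentration giving no growth, slight haze or sparse colonies versus a drug-free control.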

[9] = tested on: Streptococcus Pneumonia GYR 1171; conditions: organism code YY; BHI agar, 35-37° C., 20 to 24 hours; unit assumed
Summary of the method: as §1

[10] = tested on: Streptococcus bovis A-5169; conditions: organism code JJ; BHI agar, 35-37° C., 20 to 24 hours; unit assumed
Summary of the method: as §1

[11] = tested on: Staphylococcus aureus A5177; conditions: organism code BB; BHI agar, 35-37° C., 20 to 24 hours; unit assumed
Summary of the method: as §1

[12] = tested on: Escherichia coli SS; conditions: organism code RR; BHI agar, 35-37° C., 20 to 24 hours; unit assumed
Summary of the method: as §1

[13] = tested on: Streptococcus pyogenes EES61; conditions: organism code LL; BHI agar, 35-37° C., 20 to 24 hours; unit assumed
Summary of the method: as §1

[14] = tested on: Escherichia coli JUHL; conditions: organism code QQ; BHI agar, 35-37° C., 20 to 24 hours; unit assumed
Summary of the method: as §1

[15] = tested on: Staphylococcus aureus NCTC10649M; conditions: organism code EE; BHI agar, 35-37° C., 20 to 24 hours; unit assumed
Summary of the method: as §1

[16] = tested on: Streptococcus pyogenes 930; conditions: organism code MM; BHI agar, 35-37° C., 20 to 24 hours; unit assumed
Summary of the method: as §1

[17] = tested on: Streptococcus pyogenes PIU 2548; conditions: organism code NN; BHI agar, 35-37° C., 20 to 24 hours; unit assumed
Summary of the method: as §1

[18] = tested on: Staphylococcus aureus 1775; conditions: organism code GG; BHI agar, 35-37° C., 20 to 24 hours; unit assumed
Summary of the method: as §1

[19] = tested on: Micrococcus luteus ATCC 9341; conditions: organism code OO; BHI agar, 35-37° C., 20 to 24 hours; unit assumed
Summary of the method: as §2

[20] = tested on: Nocardia Asteroides ATCC9970; conditions: organism code VV; BHI agar, 35-37° C., 20 to 24 hours; unit assumed
Summary of the method: as §1

[21] = tested on: Enterococcus faecium ATCC 8043; conditions: organism code II; BHI agar, 35-37° C., 20 to 24 hours; unit assumed
Summary of the method: as §1

[22] = tested on: Staphylococcus aureus A-5278; conditions: organism code CC; BHI agar, 35-37° C., 20 to 24 hours; unit assumed
Summary of the method: as §1

[23] = tested on: Staphylococcus aureus CMX 642A; conditions: organism code DD; BHI agar, 35-37° C., 20 to 24 hours; unit assumed
Summary of the method: as §1

[24] = tested on: Mycobacterium smegmatis ATCC 114; conditions: organism code UU; BHI agar, 35-37° C., 20 to 24 hours; unit assumed
Summary of the method: as §1

[25] = tested on: Candida albicans CCH 442; conditions: organism code TT; BHI agar, 35-37° C., 20 to 24 hours; unit assumed
Summary of the method: as §1

[26] = tested on: Escherichia coli DC-2; conditions: organism code SS; BHI agar, 35-37° C., 20 to 24 hours; unit assumed
Summary of the method: as §1

[27] = tested on: Staphylococcus aureus ATCC 6538P; conditions: organism code AA; BHI agar, 35-37° C., 20 to 24 hours; unit assumed
Summary of the method: as §1

CC[C@H]1OC(=O)[C@H](C)C(=O)[C@H](C)[C@@H](O[C@@H]2O[C@H](C)C[C@H](N(C)C)[C@H]2O)[C@](C)(OCC#Cc2ccc(-c3nccs3)s2)C[C@@H](C)C(=O)[C@H](C)[C@H]2NC(=O)O[C@@]21C [Example 28]
MIC [1]: 0.05 µg/mL (≈ 0.0623 µM) | MIC [2]: 0.02 µg/mL (≈ 0.0249 µM) | MIC [3]: 1 µg/mL (≈ 1.25 µM) | MIC [4]: 0.25 µg/mL (≈ 0.312 µM) | MIC [5]: 2 µg/mL (≈ 2.49 µM) | MIC [6]: 0.03 µg/mL (≈ 0.0374 µM) | MIC [7]: 0.05 µg/mL (≈ 0.0623 µM) | MIC [8]: 0.1 µg/mL (≈ 0.125 µM) | MIC [9]: 0.03 µg/mL (≈ 0.0374 µM) | MIC [10]: ≤ 0.005 µg/mL | MIC [11]: 0.05 µg/mL (≈ 0.0623 µM) | MIC [12]: 0.1 µg/mL (≈ 0.125 µM) | MIC [13]: ≤ 0.005 µg/mL | MIC [14]: 25 µg/mL (≈ 31.2 µM) | MIC [15]: 0.1 µg/mL (≈ 0.125 µM) | MIC [16]: 12.5 µg/mL (≈ 15.6 µM) | MIC [17]: 0.1 µg/mL (≈ 0.125 µM) | MIC [18]: > 100 µg/mL | MIC [19]: 0.01 µg/mL (≈ 0.0125 µM) | MIC [20]: 0.05 µg/mL (≈ 0.0623 µM) | MIC [21]: 0.05 µg/mL (≈ 0.0623 µM) | MIC [22]: > 100 µg/mL | MIC [23]: 0.05 µg/mL (≈ 0.0623 µM) | MIC [24]: 0.2 µg/mL (≈ 0.249 µM) | MIC [25]: > 100 µg/mL | MIC [26]: 12.5 µg/mL (≈ 15.6 µM) | MIC [27]: 0.05 µg/mL (≈ 0.0623 µM)

CC[C@H]1OC(=O)[C@H](C)C(=O)[C@H](C)[C@@H](O[C@@H]2O[C@H](C)C[C@H](N(C)C)[C@H]2O)[C@](C)(OC/C=C/c2cnc(-c3cnccn3)s2)C[C@@H](C)C(=O)[C@H](C)[C@H]2NC(=O)O[C@@]21C [Example 58]
MIC [1]: 0.05 µg/mL (≈ 0.0625 µM) | MIC [2]: 0.02 µg/mL (≈ 0.025 µM) | MIC [3]: 4 µg/mL (≈ 5 µM) | MIC [4]: 0.25 µg/mL (≈ 0.313 µM) | MIC [5]: 4 µg/mL (≈ 5 µM) | MIC [6]: ≤ 0.004 µg/mL | MIC [7]: 0.1 µg/mL (≈ 0.125 µM) | MIC [8]: 0.05 µg/mL (≈ 0.0625 µM) | MIC [9]: ≤ 0.004 µg/mL | MIC [10]: 0.01 µg/mL (≈ 0.0125 µM) | MIC [11]: 0.05 µg/mL (≈ 0.0625 µM) | MIC [12]: 0.2 µg/mL (≈ 0.25 µM) | MIC [13]: 0.02 µg/mL (≈ 0.025 µM) | MIC [14]: 50 µg/mL (≈ 62.5 µM) | MIC [15]: 0.1 µg/mL (≈ 0.125 µM) | MIC [16]: 3.1 µg/mL (≈ 3.88 µM) | MIC [17]: 0.1 µg/mL (≈ 0.125 µM) | MIC [18]: > 100 µg/mL | MIC [19]: 0.01 µg/mL (≈ 0.0125 µM) | MIC [20]: 0.02 µg/mL (≈ 0.025 µM) | MIC [21]: 0.02 µg/mL (≈ 0.025 µM) | MIC [22]: > 100 µg/mL | MIC [23]: 0.1 µg/mL (≈ 0.125 µM) | MIC [24]: 1.56 µg/mL (≈ 1.95 µM) | MIC [25]: > 100 µg/mL | MIC [26]: 100 µg/mL (≈ 125 µM) | MIC [27]: 0.1 µg/mL (≈ 0.125 µM)

CC[C@H]1OC(=O)[C@H](C)C(=O)[C@H](C)[C@@H](O[C@@H]2O[C@H](C)C[C@H](N(C)C)[C@H]2O)[C@](C)(OCC#Cc2ccc(-c3cccc(NC(C)=O)c3)s2)C[C@@H](C)C(=O)[C@H](C)[C@H]2NC(=O)O[C@@]21C [Example 20]
MIC [1]: 0.1 µg/mL (≈ 0.117 µM) | MIC [2]: ≤ 0.005 µg/mL | MIC [3]: 0.5 µg/mL (≈ 0.587 µM) | MIC [4]: 0.25 µg/mL (≈ 0.293 µM) | MIC [5]: 4 µg/mL (≈ 4.69 µM) | MIC [6]: 0.15 µg/mL (≈ 0.176 µM) | MIC [7]: 0.1 µg/mL (≈ 0.117 µM) | MIC [8]: 0.1 µg/mL (≈ 0.117 µM) | MIC [9]: 0.015 µg/mL (≈ 0.0176 µM) | MIC [10]: ≤ 0.005 µg/mL | MIC [11]: 0.05 µg/mL (≈ 0.0587 µM) | MIC [12]: 0.2 µg/mL (≈ 0.235 µM) | MIC [13]: 0.02 µg/mL (≈ 0.0235 µM) | MIC [14]: > 100 µg/mL | MIC [15]: 0.1 µg/mL (≈ 0.117 µM) | MIC [16]: 6.2 µg/mL (≈ 7.28 µM) | MIC [17]: 0.2 µg/mL (≈ 0.235 µM) | MIC [18]: > 100 µg/mL | MIC [19]: 0.02 µg/mL (≈ 0.0235 µM) | MIC [20]: 0.1 µg/mL (≈ 0.117 µM) | MIC [21]: 0.05 µg/mL (≈ 0.0587 µM) | MIC [22]: > 100 µg/mL | MIC [23]: 0.1 µg/mL (≈ 0.117 µM) | MIC [24]: 1.56 µg/mL (≈ 1.83 µM) | MIC [25]: > 100 µg/mL | MIC [26]: 100 µg/mL (≈ 117 µM) | MIC [27]: 0.1 µg/mL (≈ 0.117 µM)

CC[C@H]1OC(=O)[C@H](C)C(=O)[C@H](C)[C@@H](O[C@@H]2O[C@H](C)C[C@H](N(C)C)[C@H]2O)[C@](C)(OCC#Cc2ccc(-c3ccc(Cl)s3)s2)C[C@@H](C)C(=O)[C@H](C)[C@H]2NC(=O)O[C@@]21C [Example 26]
MIC [1]: 0.2 µg/mL (≈ 0.239 µM) | MIC [2]: ≤ 0.005 µg/mL | MIC [3]: 0.5 µg/mL (≈ 0.598 µM) | MIC [4]: 0.25 µg/mL (≈ 0.299 µM) | MIC [5]: 4 µg/mL (≈ 4.79 µM) | MIC [6]: 0.03 µg/mL (≈ 0.0359 µM) | MIC [7]: 0.2 µg/mL (≈ 0.239 µM) | MIC [8]: 0.2 µg/mL (≈ 0.239 µM) | MIC [9]: 0.03 µg/mL (≈ 0.0359 µM) | MIC [10]: 0.05 µg/mL (≈ 0.0598 µM) | MIC [11]: 0.2 µg/mL (≈ 0.239 µM) | MIC [12]: 1.56 µg/mL (≈ 1.87 µM) | MIC [13]: 0.02 µg/mL (≈ 0.0239 µM) | MIC [14]: > 100 µg/mL | MIC [15]: 0.2 µg/mL (≈ 0.239 µM) | MIC [16]: 3.1 µg/mL (≈ 3.71 µM) | MIC [17]: 0.2 µg/mL (≈ 0.239 µM) | MIC [18]: 12.5 µg/mL (≈ 15 µM) | MIC [19]: 0.05 µg/mL (≈ 0.0598 µM) | MIC [20]: 0.1 µg/mL (≈ 0.12 µM) | MIC [21]: 0.1 µg/mL (≈ 0.12 µM) | MIC [22]: 12.5 µg/mL (≈ 15 µM) | MIC [23]: 0.2 µg/mL (≈ 0.239 µM) | MIC [24]: 0.39 µg/mL (≈ 0.467 µM) | MIC [25]: > 100 µg/mL | MIC [26]: > 100 µg/mL | MIC [27]: 0.2 µg/mL (≈ 0.239 µM)
